In the supplement of paper PMC10307832:

Columns and labels:
Assay in all cases: relative viability (nuclei count vs DMSO), 5 days (fraction); higher = more cells survive
Dovitinib + Palbociclib = compound: CN1CCN(c2ccc3nc(-c4c(N)c5c(F)cccc5[nH]c4=O)[nH]c3c2)CC1 [Dovitinib] + CC(=O)c1c(C)c2cnc(Nc3ccc(N4CCNCC4)cn3)nc2n(C2CCCC2)c1=O [Palbociclib] (partner 0.5 µM)
In short: (§1)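 Relative viability was taken as the ratio of nuclei in treated wells to nuclei in vehicle wells. Lung cancer cell lines in 1536-well plates received compounds by pin tool one day after seeding, either one drug alone or a fixed anchor-drug dose plus five library-drug doses (not always all listed) in √10 steps. Nuclei were counted on 4× images after 5 days of treatment, and values are medians of duplicate plates.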

Dovitinib + OSI-027 = compound: CN1CCN(c2ccc3nc(-c4c(N)c5c(F)cccc5[nH]c4=O)[nH]c3c2)CC1 [Dovitinib] + COc1cccc2cc(-c3nc([C@H]4CC[C@H](C(=O)O)CC4)n4ncnc(N)c34)[nH]c12 [OSI-027] (partner 0.5 µM)
In short: as §1

Dovitinib + Foretinib = compound: CN1CCN(c2ccc3nc(-c4c(N)c5c(F)cccc5[nH]c4=O)[nH]c3c2)CC1 [Dovitinib] + COc1cc2c(Oc3ccc(NC(=O)C4(C(=O)Nc5ccc(F)cc5)CC4)cc3F)ccnc2cc1OCCCN1CCOCC1 [Foretinib] (partner 0.25 µM)
In short: as §1

Dovitinib = compound: CN1CCN(c2ccc3nc(-c4c(N)c5c(F)cccc5[nH]c4=O)[nH]c3c2)CC1 [Dovitinib]
In short: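 Viability here means nuclei in treated wells divided by nuclei in vehicle wells, reported as the median across plates. Only plates with control CV below 25% and at least one doubling passed. Lung cancer cell lines in 1536-well plates were exposed to five √10-spaced library-drug doses for 5 days and counted from 4× Hoechst images in MetaXpress.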

Row | Cell Line | relative viability (Dovitinib + Palbociclib; first compound 0.02 µM) | relative viability (Dovitinib + Palbociclib; first compound 0.06325 µM) | relative viability (Dovitinib + Palbociclib; first compound 0.2 µM) | relative viability (Dovitinib + Palbociclib; first compound 0.6325 µM) | relative viability (Dovitinib + Palbociclib; first compound 2 µM) | relative viability (Dovitinib + OSI-027; first compound 0.02 µM) | relative viability (Dovitinib + OSI-027; first compound 0.06325 µM) | relative viability (Dovitinib + OSI-027; first compound 0.2 µM) | relative viability (Dovitinib + OSI-027; first compound 0.6325 µM) | relative viability (Dovitinib + OSI-027; first compound 2 µM) | relative viability (Dovitinib + Foretinib; first compound 0.02 µM) | relative viability (Dovitinib + Foretinib; first compound 0.06325 µM) | relative viability (Dovitinib + Foretinib; first compound 0.2 µM) | relative viability (Dovitinib + Foretinib; first compound 0.6325 µM) | relative viability (Dovitinib + Foretinib; first compound 2 µM) | relative viability (Dovitinib; 0.02 µM) | relative viability (Dovitinib; 0.06325 µM) | relative viability (Dovitinib; 0.2 µM) | relative viability (Dovitinib; 0.6325 µM) | relative viability (Dovitinib; 2 µM)
1 | 201T | 0.366 | 0.379 | 0.341 | 0.371 | 0.367 | 0.704 | 0.747 | 0.748 | 0.898 | 0.724 | 0.946 | 1.01 | 1.07 | 1.09 | 1.06 | 0.895 | 0.954 | 0.991 | 1.02 | 0.989
2 | A-427 | 0.502 | 0.517 | 0.553 | 0.521 | 0.587 | 0.524 | 0.432 | 0.455 | 0.452 | 0.399 | 1.17 | 0.996 | 1.02 | 1.07 | 0.956 | 0.918 | 0.901 | 1.06 | 1.06 | 1.05
3 | ABC-1 | 0.513 | 0.797 | 0.833 | 0.627 | 0.725 | 0.445 | 0.505 | 0.48 | 0.448 | 0.51 | 0.899 | 1.05 | 1.2 | 1.11 | 1.42 | 0.847 | 0.953 | 1.08 | 1.1 | 0.924
4 | BEN | 0.477 | 0.46 | 0.456 | 0.478 | 0.492 | 0.319 | 0.302 | 0.342 | 0.312 | 0.287 | 0.52 | 0.566 | 0.68 | 0.698 | 0.614 | 0.987 | 0.959 | 1.14 | 1.12 | 0.964
5 | CAL-12T | 0.563 | 0.55 | 0.406 | 0.526 | 0.589 | 0.839 | 0.768 | 0.913 | 0.569 | 0.742 | 0.986 | 1.12 | 1.07 | 1.1 | 1.12 | 1.07 | 1.02 | 1.02 | 0.99 | 1.1
6 | COR-L23 | 0.269 | 0.261 | 0.306 | 0.372 | 0.324 | 0.681 | 0.856 | 0.835 | 0.791 | 0.823 | 0.93 | 1 | 0.99 | 0.952 | 1.04 | 0.967 | 1.1 | 0.987 | 1.06 | 1.04
7 | COR-L 105 | 0.434 | 0.421 | 0.46 | 0.419 | 0.427 | 0.722 | 0.637 | 0.649 | 0.659 | 0.784 | 0.921 | 0.993 | 1.2 | 1.14 | 1.31 | 0.924 | 0.961 | 1.11 | 0.97 | 0.981
8 | Calu-6 | – | – | – | – | – | – | – | – | – | – | 0.925 | 0.861 | 0.853 | 0.874 | 0.912 | 0.977 | 1.01 | 0.999 | 0.981 | 0.959
9 | ChaGo-K-1 | 0.927 | 0.936 | 0.866 | 0.912 | 0.881 | 0.549 | 0.556 | 0.635 | 0.542 | 0.614 | 0.848 | 0.888 | 0.906 | 0.892 | 0.909 | 0.961 | 1.06 | 0.97 | 1.02 | 0.995
10 | EBC-1 | – | – | – | – | – | – | – | – | – | – | 0.105 | 0.0996 | 0.103 | 0.0933 | 0.115 | 1.08 | 0.997 | 1.06 | 0.975 | 1.06
11 | EKVX | 0.394 | 0.378 | 0.511 | 0.412 | 0.364 | 0.724 | 0.717 | 0.731 | 0.731 | 0.702 | 0.633 | 0.721 | 0.64 | 0.757 | 0.808 | 1.01 | 0.983 | 1.05 | 1.04 | 1.01
12 | EMC-BAC-2 | 0.551 | 0.493 | 0.539 | 0.502 | 0.518 | 0.484 | 0.27 | 0.409 | 0.381 | 0.461 | 1 | 0.982 | 0.991 | 0.948 | 0.599 | 1.06 | 0.952 | 0.994 | 1.01 | 1.02
13 | EPLC-272H | 0.314 | 0.331 | 0.314 | 0.336 | 0.328 | 0.258 | 0.336 | 0.3 | 0.28 | 0.241 | 0.634 | 0.841 | 0.732 | 0.747 | 0.687 | 0.942 | 0.955 | 0.976 | 0.913 | 0.928
14 | H3255 | 0.301 | 0.291 | 0.298 | 0.325 | 0.281 | 0.637 | 0.601 | 0.627 | 0.716 | 0.585 | 0.877 | 0.864 | 0.904 | 0.982 | 0.966 | 0.955 | 1.02 | 0.997 | 1.01 | 1.06
15 | HARA | 0.29 | 0.234 | 0.311 | 0.254 | 0.258 | 0.628 | 0.438 | 0.456 | 0.538 | 0.474 | 0.969 | 0.765 | 0.846 | 0.873 | 0.905 | 1.29 | 0.948 | 1 | 1.25 | 1.01
16 | HCC-15 | 0.738 | 0.708 | 0.717 | 0.694 | 0.708 | 0.658 | 0.68 | 0.741 | 0.656 | 0.711 | 1.03 | 0.971 | 1 | 1.06 | 1.03 | 1.05 | 0.961 | 1.07 | 1.03 | 1
17 | HCC-44 | 0.93 | 0.994 | 0.969 | 0.985 | 0.95 | 0.538 | 0.578 | 0.569 | 0.485 | 0.524 | – | – | – | – | – | 0.979 | 0.98 | 0.991 | 1 | 1.03
